{"source": "the supplement of paper PMC10307832", "experiment_in_all_cases": "relative viability (nuclei count vs DMSO), 5 days (fraction); higher = more cells survive", "key": {"MK-8033": {"compound": "Cn1cc(-c2cnc3ccc4ccc(CS(=O)(=O)NCc5ccccn5)cc4c(=O)c3c2)cn1 [MK-8033]", "outline": "(§1)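 Acceptance criteria were a control CV below 25% and at least one doubling per plate. Lung cancer cell lines in 1536-well plates got five library-drug doses (not always all listed) √10 apart by pinning and were left 5 days with no medium change. Viability divides treated-well nuclei by vehicle-well nuclei and is the median across plates. Nuclei were counted by MetaXpress from 4× Hoechst images.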"}, "Irinotecan": {"compound": "CCc1c2c(nc3ccc(OC(=O)N4CCC(N5CCCCC5)CC4)cc13)-c1cc3c(c(=O)n1C2)COC(=O)[C@]3(O)CC [Irinotecan]", "outline": "as §1"}, "RU-SKI 43": {"compound": "CC[C@@H](C)CNCC(=O)N1CCC2=C([C@@H]1COC3=CC=CC(=C3)C)C=CS2 [RU-SKI 43]", "outline": "as §1"}, "RU-SKI 43 + Trametinib": {"compound": "CC[C@@H](C)CNCC(=O)N1CCC2=C([C@@H]1COC3=CC=CC(=C3)C)C=CS2 [RU-SKI 43] + CC(=O)Nc1cccc(-n2c(=O)n(C3CC3)c(=O)c3c(Nc4ccc(I)cc4F)n(C)c(=O)c(C)c32)c1 [Trametinib] (partner 0.02 µM)", "outline": "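Lung cancer cell lines in 1536-well plates got either a single drug or a fixed anchor-drug dose together with five library-drug doses (not always all listed) in √10 steps, by pin tool, on the day after seeding. Nuclei were counted after 5 days, and relative viability is the treated-to-vehicle ratio of nuclei counts. Values are medians of duplicate plates.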"}}}
{"cell line": "UMC-11", "values": [{"measurement": "relative viability", "setting": "MK-8033; 0.02 µM", "result": 0.962}, {"measurement": "relative viability", "setting": "MK-8033; 0.06325 µM", "result": 0.837}, {"measurement": "relative viability", "setting": "MK-8033; 0.2 µM", "result": 0.916}, {"measurement": "relative viability", "setting": "MK-8033; 0.6325 µM", "result": 1}, {"measurement": "relative viability", "setting": "MK-8033; 2 µM", "result": 0.982}, {"measurement": "relative viability", "setting": "Irinotecan; 0.6325 µM", "result": 0.677}, {"measurement": "relative viability", "setting": "Irinotecan; 2 µM", "result": 0.675}, {"measurement": "relative viability", "setting": "Irinotecan; 6.325 µM", "result": 0.401}, {"measurement": "relative viability", "setting": "Irinotecan; 20 µM", "result": 0.264}, {"measurement": "relative viability", "setting": "RU-SKI 43; 0.1 µM", "result": 1.07}, {"measurement": "relative viability", "setting": "RU-SKI 43; 0.3162 µM", "result": 1.11}, {"measurement": "relative viability", "setting": "RU-SKI 43; 1 µM", "result": 1.08}, {"measurement": "relative viability", "setting": "RU-SKI 43; 3.162 µM", "result": 1.07}, {"measurement": "relative viability", "setting": "RU-SKI 43; 10 µM", "result": 0.843}, {"measurement": "relative viability", "setting": "RU-SKI 43 + Trametinib; first compound 0.1 µM", "result": 0.691}, {"measurement": "relative viability", "setting": "RU-SKI 43 + Trametinib; first compound 0.3162 µM", "result": 0.693}, {"measurement": "relative viability", "setting": "RU-SKI 43 + Trametinib; first compound 1 µM", "result": 0.742}, {"measurement": "relative viability", "setting": "RU-SKI 43 + Trametinib; first compound 3.162 µM", "result": 0.745}, {"measurement": "relative viability", "setting": "RU-SKI 43 + Trametinib; first compound 10 µM", "result": 0.401}]}
